Data from ChEMBL document CHEMBL2380231, “X-ray crystal structure of ERK5 (MAPK7) in complex with a specific inhibitor” (J Med Chem, 2013).
Activity calls are given as the source filed them. No cut-off for these calls is given here.

Key:
Type in all cases: cell-based
[1] = molecular target: T1, Mitogen-activated protein kinase 7 (Homo sapiens, UniProt Q13164); assay: Inhibition of GST-tagged full length human ERK5 transfected in HEK293 cells assessed as inhibition of AP1 transcriptional activity after 24 hrs by dual luciferase reporter gene assay
Target sequence in this assay (Q13164 whole entry): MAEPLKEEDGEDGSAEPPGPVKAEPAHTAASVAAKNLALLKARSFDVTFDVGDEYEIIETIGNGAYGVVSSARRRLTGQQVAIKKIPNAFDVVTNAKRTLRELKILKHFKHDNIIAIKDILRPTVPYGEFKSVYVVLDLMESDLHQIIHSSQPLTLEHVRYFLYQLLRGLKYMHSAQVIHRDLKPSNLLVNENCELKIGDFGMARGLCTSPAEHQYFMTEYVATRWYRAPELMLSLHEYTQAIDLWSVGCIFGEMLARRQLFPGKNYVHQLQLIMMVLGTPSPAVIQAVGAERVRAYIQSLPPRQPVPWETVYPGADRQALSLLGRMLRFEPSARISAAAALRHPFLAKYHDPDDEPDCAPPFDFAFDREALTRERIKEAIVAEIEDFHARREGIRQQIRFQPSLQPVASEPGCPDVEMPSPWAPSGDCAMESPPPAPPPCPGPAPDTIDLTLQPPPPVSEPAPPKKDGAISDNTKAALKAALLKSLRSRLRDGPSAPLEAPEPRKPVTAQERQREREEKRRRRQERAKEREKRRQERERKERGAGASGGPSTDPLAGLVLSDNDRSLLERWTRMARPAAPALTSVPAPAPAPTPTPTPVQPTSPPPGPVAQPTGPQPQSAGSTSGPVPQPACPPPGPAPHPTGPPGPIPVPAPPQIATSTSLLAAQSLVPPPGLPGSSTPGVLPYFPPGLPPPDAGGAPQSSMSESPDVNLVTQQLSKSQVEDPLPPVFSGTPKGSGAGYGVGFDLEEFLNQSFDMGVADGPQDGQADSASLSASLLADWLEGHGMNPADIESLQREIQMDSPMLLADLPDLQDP

[2] = molecular target: T2, Mitogen-activated protein kinase; ERK1/ERK2 (Homo sapiens) (UniProt P27361+P28482); assay: Inhibition of ERK1/ERK2 phosphorylation in sorbitol-stimulated human HeLa cells at 0.04 to 5 uM incubated for 1 hr prior to sorbitol stimulation measured after 30 mins by Western blot analysis
[3] = molecular target: T2, Mitogen-activated protein kinase; ERK1/ERK2 (Homo sapiens); assay: Inhibition of total ERK1/ERK2 in sorbitol-stimulated human HeLa cells at 0.04 to 5 uM incubated for 1 hr prior to sorbitol stimulation measured after 30 mins by Western blot analysis
[4] = molecular target: T1, Mitogen-activated protein kinase 7; assay: Inhibition of ERK5 autophosphorylation in sorbitol-stimulated human HeLa cells at 0.04 to 5 uM incubated for 1 hr prior to sorbitol stimulation measured after 30 mins by Western blot analysis
Target sequence in this assay (Q13164 2-816 limits assumed): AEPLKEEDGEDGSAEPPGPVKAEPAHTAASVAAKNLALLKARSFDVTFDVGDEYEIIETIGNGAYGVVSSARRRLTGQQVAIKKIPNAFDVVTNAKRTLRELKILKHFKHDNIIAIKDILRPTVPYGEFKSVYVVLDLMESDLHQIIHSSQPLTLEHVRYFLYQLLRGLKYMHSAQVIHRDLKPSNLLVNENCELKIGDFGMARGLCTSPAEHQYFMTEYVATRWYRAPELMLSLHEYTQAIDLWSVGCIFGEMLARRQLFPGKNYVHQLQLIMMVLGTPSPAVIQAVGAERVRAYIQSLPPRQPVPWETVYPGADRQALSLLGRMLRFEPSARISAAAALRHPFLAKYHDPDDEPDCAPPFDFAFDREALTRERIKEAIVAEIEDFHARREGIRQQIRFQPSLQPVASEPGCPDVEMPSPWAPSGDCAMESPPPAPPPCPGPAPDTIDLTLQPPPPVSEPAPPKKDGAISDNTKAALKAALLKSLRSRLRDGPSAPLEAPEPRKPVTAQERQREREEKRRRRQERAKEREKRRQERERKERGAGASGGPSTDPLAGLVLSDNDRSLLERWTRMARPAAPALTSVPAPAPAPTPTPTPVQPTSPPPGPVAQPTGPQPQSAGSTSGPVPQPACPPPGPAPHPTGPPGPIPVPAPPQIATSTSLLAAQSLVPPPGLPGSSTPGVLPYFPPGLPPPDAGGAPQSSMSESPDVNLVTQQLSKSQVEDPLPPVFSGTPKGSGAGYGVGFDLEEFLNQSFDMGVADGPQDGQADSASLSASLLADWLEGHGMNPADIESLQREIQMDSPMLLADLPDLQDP

T2 sequence (P27361 whole entry, looked up): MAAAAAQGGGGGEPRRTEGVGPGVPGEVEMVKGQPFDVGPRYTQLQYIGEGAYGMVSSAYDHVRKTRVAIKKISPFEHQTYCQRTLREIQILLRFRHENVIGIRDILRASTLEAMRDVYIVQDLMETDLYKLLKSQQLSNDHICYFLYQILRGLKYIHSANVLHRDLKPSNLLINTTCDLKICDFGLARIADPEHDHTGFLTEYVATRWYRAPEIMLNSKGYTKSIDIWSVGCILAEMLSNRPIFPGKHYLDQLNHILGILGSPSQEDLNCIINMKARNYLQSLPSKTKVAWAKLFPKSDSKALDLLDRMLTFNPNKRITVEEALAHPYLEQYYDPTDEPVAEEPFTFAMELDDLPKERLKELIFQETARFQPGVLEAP
T2 sequence (P28482 whole entry, looked up): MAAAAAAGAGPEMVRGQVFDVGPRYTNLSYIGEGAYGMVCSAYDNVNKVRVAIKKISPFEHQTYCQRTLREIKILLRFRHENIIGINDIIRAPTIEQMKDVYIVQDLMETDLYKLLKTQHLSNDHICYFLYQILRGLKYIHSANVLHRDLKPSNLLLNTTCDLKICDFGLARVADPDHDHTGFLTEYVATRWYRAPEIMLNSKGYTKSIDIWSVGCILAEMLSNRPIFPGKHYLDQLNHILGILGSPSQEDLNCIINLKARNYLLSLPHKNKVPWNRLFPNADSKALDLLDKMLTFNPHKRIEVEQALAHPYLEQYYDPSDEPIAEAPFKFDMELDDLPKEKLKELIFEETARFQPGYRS

EC50 [1] [µM]	inhibition [2]	inhibition [3]	inhibition [4]	Structure (SMILES)
> 30	–	–	–	COc1cc(C(=O)N2CCC(N3CCN(C)CC3)CC2)ccc1Nc1ncc2c(n1)N1CCc3cccc(c31)C(=O)N2C
–	inactive	inactive	Active	CCOc1cc(C(=O)N2CCC(N3CCN(C)CC3)CC2)ccc1Nc1ncc2c(n1)N(C1CCCC1)c1ccccc1C(=O)N2C
